Reference: publication PMC9663578, “A fluorogenic probe for predicting treatment response in non-small cell lung cancer with EGFR-activating mutations” (Nature Communications, 2022)
Where “and” joins values, the source holds several entries; their conditions need not be identical. Equal values may be shown once.

Key:
EGFR 19del = target: T1, EGFR 19del (Homo sapiens, UniProt P00533, DEL746-750); experiment: Fluorescence turn-on response / titration of HX103 with recombinant EGFR;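 as to Fluorescence intensity at 570 nm: 100% is HX103 fluorescence with wild-type EGFR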;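 as to Fluorescence response of HX103 to EGFR 19del: ratio I over I0 of probe intensity with versus without protein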; format: binding; details: for Fluorescence intensity, DEL19: Fig. 2c; for Fluorescence response of HX103 to EGFR 19del: Supplementary Fig. 2f
T1 construct: purchased Thermo Fisher PV6179
Protocol: (§1) (d) Fluorescence spectra change of HX103 (5 µ M) with increasing concentration of EGFR L858R
(§2) (e) Fluorescence spectra change of HX103 (5 µ M ) with
(§3) increasing concentration of EGFR 19del (0 to 6 µM) in PBS buffer. (f) Titration curve of HX103
(§4) (5 µM) with increasing concentration of EGFRs (0 to 6 µM). The apparent binding affinity (Kd)
(§5) The fluorescence titration curve was fitted on one -
(§6) site specific binding model. I and I0 represent the intensities of HX103 at 570 nm in the presence
(§7) and absence of protein. Data represent average val ues ± SD, n = 3 independent experiments per
(§8) dissolved in dimethyl sulfoxide (DMSO) to obtain stock solutions (10 mM). The prepared stock
(§9) solution was diluted in sodium phosphate buffer (PBS, 1 M, pH=7.4) to obtain the desired final
(§10) concentration solution, containing 0.1% (v/v) DMSO as a cosolvent.
(§11) and emission fluorescence spectra of the solution before/after addition o f different concentration
(§12) Data analysis：The obtained fluorescence intensity at 570 nm (Excitation wavelength was 440
(§13) nm) in each sample was normalized by using the fluorescence intensity of HX103 in the presence
(§14) of EGFR. Specifically, the fluorescence intensity of HX103 in the presence of EGFR wild-type
(§15) was set at 100% to normalized that of the remaining samples.

EGFR T790M = target: T2, EGFR T790M (Homo sapiens, UniProt P00533, T790M); experiment: as above; format: binding; details: for Fluorescence intensity, T790M: Fig. 2c; for Fluorescence response of HX103 to EGFR T790M: Supplementary Fig. 2f;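 as to Fluorescence intensity at 570 nm: 100% is HX103 fluorescence with wild-type EGFR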
T2 construct: EGFR T790M (amino acids 668–1210, #PR8052A); purchased Thermo Fisher PR8052A
Protocol: as §1, §2, §3, §4, §5, §6, §7, §8, §9, §10, §11, §12, §13, §14, §15

MTT cytotoxicity assay [1] = format: cell-based; details: human, A431 cells, EGFR wild-type, n=3
MTT cytotoxicity assay [2] = format: cell-based; details: human, HeLa cells, EGFR wild-type, n=3
A431 = experiment: Western blot of EGFR activation and downstream AKT and ERK1/2 phosphorylation; format: cell-based, human; details: Fig. 2i A431; concentration 0.3 (unit not given); DMSO = 1; n=1-3
Protocol: Western blotting analysis was performed to investigate the expression of EGFR and downstream signaling pathway in various cancer cells. Cells were added at a density of 5 × 10^5 per well in six-well plates and serum-starved in DMEM without FBS. […] After a PBS washing step, the cells were harvested and lysed in RIPA lysis buffer (Thermo Scientific, #89900) on ice for 20 min. After sonication, cell lysates were centrifuged at 12,000×g at 4 °C for 20 min. The supernatant was collected and protein concentration was determined by a BCA protein quantitation kit (Vazyme) and normalized to 2 mg/mL. Subsequently, 20 µL of protein sample was loaded to each lane and resolved on a 10% SDS-PAGE gel. After that, proteins on the gel were transferred onto polyvinylidene difluoride (PVDF) membranes (0.45 µm, Amersham Bioscience). PVDF membranes were blocked with 5% BSA blocking solution for 2 h at room temperature, followed by incubation with different primary antibodies (4 °C, overnight), including EGFR (#4267, 1:1000), phospho-EGFR (#3777, 1:1000), Akt (#4685, 1:1000), phospho-Akt (#4060, 1:1000), ERK1/2 (#4695, 1:1000), phospho-ERK1/2 (#4370, 1:2000) and GAPDH (#5174, 1:2000). Next, the membranes were washed by TBST buffer (Tris buffer with 0.1% Tween-20) for three times, followed by incubation with anti-rabbit IgG (HRP-linked antibody, #7074, 1:5000) for 1 h at room temperature. Finally, the blots were washed in PBST and immunoreactive proteins were detected using a luminal solution with ECL enhancer and H2O2 by ChemiDoc MP (BioRad) with Image Lab 6.0 software. The band density of each band was quantified and normalized to that of the corresponding GAPDH band to correct the possible differences in the content of protein loading. Each experiment was repeated 3 times for statistical analysis, and uncropped blots are in Source Data.

[3] = HX103 5 µM in PBS buffer (0.1% DMSO), 570 nm
[4] = HX103 5 µM, EGFR 0 to 6 µM in PBS, one-site specific binding model, read-out: apparent binding affinity (Kd)

Fluorescence intensity, DEL19 (EGFR 19del; wavelength 666 nm): 6329.64 | Fluorescence intensity, DEL19 (EGFR 19del; wavelength 669 nm): 5943.64 | Fluorescence intensity, DEL19 (EGFR 19del; wavelength 671 nm): 5458.74 | Fluorescence intensity, DEL19 (EGFR 19del; wavelength 673 nm): 4903.02 | Fluorescence intensity, DEL19 (EGFR 19del; wavelength 676 nm): 4330.47 | Fluorescence intensity, DEL19 (EGFR 19del; wavelength 678 nm): 3796.5 | Fluorescence intensity, DEL19 (EGFR 19del; wavelength 681 nm): 3356.07 | Fluorescence intensity, DEL19 (EGFR 19del; wavelength 683 nm): 3030.49 | Fluorescence intensity, DEL19 (EGFR 19del; wavelength 686 nm): 2784.09 | Fluorescence intensity, DEL19 (EGFR 19del; wavelength 688 nm): 2575.72 | Fluorescence intensity, DEL19 (EGFR 19del; wavelength 690 nm): 2364.25 | Fluorescence intensity, DEL19 (EGFR 19del; wavelength 693 nm): 2121.24 | Fluorescence intensity, DEL19 (EGFR 19del; wavelength 695 nm): 1850.71 | Fluorescence intensity, DEL19 (EGFR 19del; wavelength 698 nm): 1561.85 | Fluorescence intensity, DEL19 (EGFR 19del; wavelength 700 nm): 1263.82 | Fluorescence intensity at 570 nm (EGFR 19del; Fig. 2d, HX103 with EGFR 19del, n=1-3): 101.138 and 103.905 and 84.1794 | fluorescence turn-on response (EGFR 19del; [3]): high fluorescence | Kd (EGFR 19del; [4]): 1.1 ± 0.2 µM | Fluorescence response of HX103 to EGFR 19del (EGFR 19del; EGFR 0.1 µM, n=1-3): 2.201 and 2.149 and 2.11 | Fluorescence response of HX103 to EGFR 19del (EGFR 19del; EGFR 1 µM, n=1-3): 5.519 and 5.544 and 5.826 | Fluorescence response of HX103 to EGFR 19del (EGFR 19del; EGFR 5 µM, n=1-3): 8.2406 and 9.498 and 10.3034 | Fluorescence response of HX103 to EGFR 19del (EGFR 19del; EGFR 6 µM, n=1-3): 10.0143 and 10.322 and 11.4127 | Fluorescence intensity, T790M (EGFR T790M; wavelength 666 nm): 2748.26 | Fluorescence intensity, T790M (EGFR T790M; wavelength 669 nm): 2609.98 | Fluorescence intensity, T790M (EGFR T790M; wavelength 671 nm): 2444.87 | Fluorescence intensity, T790M (EGFR T790M; wavelength 673 nm): 2257.89 | Fluorescence intensity, T790M (EGFR T790M; wavelength 676 nm): 2067.13 | Fluorescence intensity, T790M (EGFR T790M; wavelength 678 nm): 1891.35 | Fluorescence intensity, T790M (EGFR T790M; wavelength 681 nm): 1749.2 | Fluorescence intensity, T790M (EGFR T790M; wavelength 683 nm): 1648.24 | Fluorescence intensity, T790M (EGFR T790M; wavelength 686 nm): 1577.34 | Fluorescence intensity, T790M (EGFR T790M; wavelength 688 nm): 1523.55 | Fluorescence intensity, T790M (EGFR T790M; wavelength 690 nm): 1473.92 | Fluorescence intensity, T790M (EGFR T790M; wavelength 693 nm): 1419.2 | Fluorescence intensity, T790M (EGFR T790M; wavelength 695 nm): 1359.54 | Fluorescence intensity, T790M (EGFR T790M; wavelength 698 nm): 1296.59 | Fluorescence intensity, T790M (EGFR T790M; wavelength 700 nm): 1231.99 | Fluorescence intensity at 570 nm (EGFR T790M; Fig. 2d, HX103 with EGFR T790M, n=1-3): 62.6243 and 56.177 and 61.7341 | fluorescence turn-on response (EGFR T790M; [3]): relatively low fluorescence | Kd (EGFR T790M; [4]): 6.6 ± 4.6 µM | Fluorescence response of HX103 to EGFR T790M (EGFR T790M; EGFR 0.1 µM, n=1-3): 0.8143 and 0.8764 and 0.5043 | Fluorescence response of HX103 to EGFR T790M (EGFR T790M; EGFR 0.5 µM, n=1-3): 1.381 and 1.689 and 1.392 | Fluorescence response of HX103 to EGFR T790M (EGFR T790M; EGFR 1 µM, n=1-3): 1.713 and 2.039 and 1.744 | Fluorescence response of HX103 to EGFR T790M (EGFR T790M; EGFR 6 µM, n=1-3): 6.037 and 7.198 and 5.58
Structure (SMILES): COc1cc2c(Nc3ccc(F)c(Cl)c3)ncnc2cc1OCCCNc1ccc(S(=O)(=O)N(C)C)c2nonc12 [HX103]
IC50 at 48 h (MTT cytotoxicity assay [1]): 26 µM | IC50 at 48 h (MTT cytotoxicity assay [2]): > 100 µM | p-kinase / kinase pAKT/AKT (A431): 0.604 and 0.491 and 0.502 | p-kinase / kinase pERK/ERK (A431): 0.593 and 0.802 and 0.793
